Experimental data taken from paper PMC3836994, “Killer Bee Molecules: Antimicrobial Peptides as Effector Molecules to Target Sporogonic Stages of Plasmodium” (PLoS Pathogens, 2013).
Non-standard residues stand in square brackets, D forms with d. No end group written: not given here. pGlu = O=C1CC[C@@H](C(=O)O)N1

How the values were obtained:
[1] = test system: Anopheles gambiae Sua 4.0 cells; test: Sua 4.0 mosquito cell viability (erythrosin B exclusion); type: cell-based; parameters: dose or concentration left out as unconfirmed; settings: after 48 h culture; for Average viability of cells (3 replicates), peptide: erythrosin B exclusion, 100 cells in triplicate wells; for Reduction in cell viability: versus control
Method: (§1) To establish potential effects of AMPs on mosquito cells, the An. gambiae Sua 4.0 cell line was used. This facilitated an initial high-throughput screening and provided insights into AMP toxicity, mode of action (lytic or other) and speed of action. Sua 4.0 cells were maintained at 27°C in Schneider's insect medium supplemented with 10% FBS (foetal bovine serum) in T25 culture flasks (Fisher, UK).
(§2) Each AMP was tested separately to establish if it affected cell viability and growth. […] Cells were maintained for 3, 6, 24 or 48 h, after which they were resuspended and a sub-sample from duplicate wells counted using a haemocytometer. To establish cell viability after 48 h (whether simply arrested in development or non-viable), resuspended cells were added to an equal volume of 5% erythrosin B vital dye and viable cells excluding the stain were counted. The viability of 100 cells in triplicate wells was recorded. Each AMP assay was performed in triplicate and included a negative control minus the peptide (5 µl of water alone added to the medium) and a further control of 5 µl of 10% SDS (sodium dodecyl sulphate) substituted for the AMP as this causes 100% cell lysis.

P. berghei ookinetes = test: P. berghei ookinete viability in vitro (erythrosin B); type: cell-based, Plasmodium berghei; settings: for Average ookinete viability (3 reps), peptide / Reduction in ookinete viability: 30 min; for Reduction in ookinete viability: versus control
Method: Our primary aim was to target parasites in mosquitoes before they cross the midgut wall, therefore AMPs were first assessed for their ability to kill ookinetes in vitro. […] Ookinete cultures of P. berghei were established from gametocytaemic blood as previously described. Parasites were enriched using cold 0.17M ammonium chloride after 18 h of culture and washed thoroughly with PBS (phosphate buffered saline). Parasites were seeded in triplicate wells of a 96-well microtitre plate at a density of 1×10^5/ml in a volume of 47.5 µl Schneider's insect medium (Invitrogen) with 2.5 µl of the test AMP (final concentration of 50 µM). Ookinetes were incubated for 30 min in conjunction with triplicate control wells containing medium with 2.5 µl of water instead of AMP. A sub-sample of parasites was then added to an equal volume of 5% erythrosin B to assess viability (150 ookinetes in total, taken from 3 wells). Each of the 33 AMPs was screened in this way and assays were performed 3 times. AMPs displaying a high degree of toxicity (>90% of ookinetes displaying erythrosin B staining) underwent further ookinete assays using a concentration of 100 µM AMP. To assess synergistic effects, combinations of two peptides were also tested at a concentration of 25 µM per AMP, in the assay described above.

[2] = test system: Anopheles gambiae Sua 4.0 cells; test: Sua 4.0 mosquito cell growth (cell counts); type: cell-based; settings: 25 µM AMP; for Average number of cells over 3 replicates, peptide: seeded 30×10^4/ml, mean of 3 experiments
Method: as §1, §2

P. berghei = P. berghei infections in Anopheles stephensi (oocyst prevalence and intensity); type: in vivo, Plasmodium berghei; settings: for Prevalence (proportion of infected mosquitoes), peptide: 50 µM peptide in gametocytaemic mouse blood fed to An. stephensi; for Intensity (mean number of oocysts, range in parentheses), peptide: 50 µM peptide, An. stephensi
Method: To assess the effects of AMPs on parasites in vivo, mouse blood containing P. berghei gametocytes was obtained by cardiac puncture and 475 µl was rapidly mixed with 25 µl (50 µM final concentration) of AMP. This mixture was fed to 100 nulliparous 3–5 day old female An. stephensi. A further 475 µl of blood from the same infection was mixed with 25 µl of distilled water to act as a control. Mosquitoes were maintained at 19°C for optimum parasite development. Between 30 and 50 mosquitoes were dissected after 10 days. Mosquito wing length, numbers of retained eggs and oocysts were recorded in triplicate experiments carried out on different mosquito cohorts.

[3] = test system: An. gambiae (Mali strain); test: Mosquito oviposition after blood feed containing AMP; type: in vivo, Anopheles gambiae; settings: for Significance of effect on oviposition: 50 µM AMP, one-way ANOVA, peptide vs control; for Mean no. of eggs laid per mosquito, peptide: after first feed with 50 µM AMP, eggs laid over two nights, averaged per surviving mosquito, 3 or 4 replicates
Method: (§3) Female An. gambiae (Mali strain, 3–5 days old) were used to establish the effects of AMPs on mosquito longevity and fecundity in the absence of confounding factors introduced with parasite infection. Two hundred 3–6 day old females were fed on human O+ whole blood supplemented with 50 µM AMP (or water control, 1 ml total volume) via feeding chambers of a Hemotek membrane feeding system. Fully engorged mosquitoes were randomly moved into four separate cages, each containing 25 mosquitoes, to facilitate monitoring. Mortality rates were recorded daily for a 10-day period, and oviposition sites were provided on the second and third night post-feeding. A second blood feed containing the same AMP was administered 7 days later to mimic the likelihood that mosquitoes would feed at least twice in the field during the development of sporogonic stages of the malaria parasite. Oviposition sites were again provided to assess fecundity through the number of eggs laid as an average per surviving mosquito. Assays for each AMP were repeated in triplicate on separate generations of mosquitoes. Due to egg retention under experimental conditions, egg production is best measured by dissecting mosquitoes that have not been provided with an oviposition site. However, this is not a feasible method of determining fecundity when longevity is also being measured.

[4] = test system: An. gambiae (Mali strain); test: Mosquito longevity after blood feeds containing AMP; type: in vivo, Anopheles gambiae; settings: for Significance of effect on longevity over 10 days: 50 µM AMP, Kaplan-Meier, Wilcoxon, peptide vs control; for Percent alive, peptide: over 10 days, 50 µM AMP in human blood, feeds on days 0 and 7, 3 or 4 replicates
Method: as §3

P. falciparum = test: Field P. falciparum from gametocyte carriers membrane-fed to An. gambiae (Mali); type: in vivo, Plasmodium falciparum; settings: Replicate 1, 50 µM; for Oocyst prevalence (oocyst positive mosquitoes), peptide: blood of gametocyte carriers, progeny of field An. gambiae; for Oocyst intensity (mean number of oocysts per gut, range in parentheses), peptide: field parasites and mosquitoes
Text: Nyaganabougou, a village approximately 60 km south-west of the Malian capital, Bamako, was used as a site for the source of donors of malaria-infected blood. Due to its proximity to the river Niger, which provides perennial mosquito breeding sites, Nyaganabougou has high numbers of infected individuals and an extended transmission season. Mosquitoes used to establish the An. gambiae Mali colony used for this study were originally collected in the village of Kenieroba (a distance of 15 km from Nyaganabougou). Potential male and female gametocyte carriers between the ages of 6–10 were screened by thick smear and parasite species and density determined by local staff, led by Saibou Doumbia.
Gametocyte carriers were taken to the Malaria Research and Training Centre at the University of Bamako for blood donation. Approximately 4 ml of blood was extracted from carriers and immediately divided into 3 Hemotek membrane feeders for testing 2 separate AMPs and one control for each carrier. Peptides were added to 950 µl of gametocytaemic blood for a final concentration of 50 µM. All parasite-positive individuals were subsequently treated appropriately for parasites and associated symptoms, as determined by, and carried out by, local health workers in Nyaganabougou.
Approximately 120 adult female An. gambiae (Mali, 4–7 days old) were starved overnight, and allowed to feed on the gametocytaemic blood/AMP mix for 30 min. Engorged females were maintained on 10% glucose with 0.05% PABA for 8 days before dissection. No oviposition sites were provided so that fecundity could be measured by determining retained eggs. Mosquito wing length, numbers of retained eggs and oocysts were recorded, and triplicate peptide experiments were carried out on different mosquito cohorts, using blood from different donors. Where possible, a minimum of 50 mosquitoes were dissected for each condition.

[5] = 50 µM of single peptide, n = 150 ookinetes per treatment per replicate

Row | Molecule | Average viability of cells (3 replicates), peptide [1] | Reduction in cell viability [1] | Average ookinete viability (3 reps), peptide (P. berghei ookinetes; [5]) | Reduction in ookinete viability (P. berghei ookinetes; 50 µM of single peptide) | Average ookinete viability (3 reps), peptide (P. berghei ookinetes; 100 µM of single peptide) | Reduction in ookinete viability (P. berghei ookinetes; 100 µM of single peptide) | Prevalence (proportion of infected mosquitoes), peptide (P. berghei; Replicate 1) | Intensity (mean number of oocysts, range in parentheses), peptide (P. berghei; Replicate 1) | Prevalence (proportion of infected mosquitoes), peptide (P. berghei; Replicate 2) | Intensity (mean number of oocysts, range in parentheses), peptide (P. berghei; Replicate 2) | Prevalence (proportion of infected mosquitoes), peptide (P. berghei; Replicate 3) | Intensity (mean number of oocysts, range in parentheses), peptide (P. berghei; Replicate 3) | Significance of effect on oviposition [3] | Mean no. of eggs laid per mosquito, peptide [3] | Significance of effect on longevity over 10 days [4] | Percent alive, peptide [4] | Oocyst prevalence (oocyst positive mosquitoes), peptide (P. falciparum) | Oocyst intensity (mean number of oocysts per gut, range in parentheses), peptide (P. falciparum) | other results
1 | CC[C@H](C)[C@H](N)C(=O)N[C@@H](CC(C)C)C(=O)N1CCC[C@H]1C(=O)N[C@@H](Cc1c[nH]c2ccccc12)C(=O)N[C@@H](CCCCN)C(=O)N[C@@H](Cc1c[nH]c2ccccc12)C(=O)N1CCC[C@H]1C(=O)N[C@@H](Cc1c[nH]c2ccccc12)C(=O)N[C@@H](Cc1c[nH]c2ccccc12)C(=O)N1CCC[C@H]1C(=O)N[C@@H](Cc1c[nH]c2ccccc12)C(=O)N[C@@H](CCCNC(=N)N)C(=O)N[C@@H](CCCNC(=N)N)C(N)=O [Indolicidin] | 61% | 36% | – | – | – | – | – | – | – | – | – | – | – | – | – | – | – | – | –
2 | CKQSCSFGPFTFVCDGNTK (also: bicyclic or more (positions not given here)) [Duramycin, A lantibiotic from bacteria, 19 aa (Sigma D3168)] | 0% | 100% | 11% | 88% | 1% | 99% | 80% (50) | 17 (0–114) | 88% (50) | 59 (0–294) | 98% (50) | 135 (0–319) | N/S | 39 | N/S | 84% | – | – | Reduction in cell number (compared to control) ([2]; 3 hrs in culture): 42%; Average number of cells over 3 replicates, peptide ([2]; 3 hrs in culture, haemocytometer count of duplicate wells): 180000 mL⁻¹; Reduction in cell number (compared to control) ([2]; 24 hrs in culture): 73%; Average number of cells over 3 replicates, peptide ([2]; 24 hrs in culture): 130000 mL⁻¹; Reduction in cell number (compared to control) ([2]; 48 hrs in culture): 88%; Average number of cells over 3 replicates, peptide ([2]; 48 hrs in culture): 90000 mL⁻¹
3 | GLLKRIKTLL [Anoplin, 10 aa peptide isolated from the solitary wasp, homology to Mastoparan X] | – | – | 10% | 89% | 2% | 98% | 66% (44) | 21 (0–147) | 98% (50) | 74 (0–580) | 100% (50) | 177 (1–666) | N/S | 36 | N/S | 80% | – | – | –
4 | RRWQWRMKKLG [Lactoferricin B, Product of pepsin cleavage of bovine lactoferrin] | – | – | – | – | – | – | – | – | – | – | – | – | – | – | – | – | 46% (37) | 2 (0–17) | –
5 | Scorpine | – | – | – | – | – | – | – | – | – | – | – | – | – | – | – | – | – | – | Efficacy against malaria parasites (in words) (P. berghei ookinetes; in our hands, rodent or human malaria, test not specified further, actual concentration may have been lower than expected): not effective against rodent or human malaria
6 | [pGlu]GMIGTLTSKRIKQ [Levitide, Isolated from skin secretions of Xenopus laevis] | – | – | – | – | – | – | – | – | – | – | – | – | – | – | – | – | 8% (60) | <1 (0–1) | –
